From ChEMBL document CHEMBL4831557, “Parthenolide Derivatives as PKM2 Activators Showing Potential in Colorectal Cancer” (J Med Chem, 2021)
pIC50: −log10 of the molar value.

Experiments:
[1] = test system: HT-29; test: Cytotoxicity against human HT-29 cells assessed as reduction in cell viability incubated for 48 hrs by MTT assay; assay type: functional, cell-based; conditions: HT-29, 48 h
[2] = test system: A549; test: cells; conditions: Homo sapiens, A549, 48 h
[3] = test system: U2OS; test: Cytotoxicity against human U2OS cells assessed as reduction in cell viability incubated for 48 hrs by MTT assay; assay type: functional, cell-based
[4] = test system: MDA-MB-231; test: Cytotoxicity against human MDA-MB-231 cells assessed as reduction in cell viability incubated for 48 hrs by MTT assay; assay type: functional, cell-based; conditions: MDA-MB-231, 48 h
[5] = test system: HCT-116; test: Cytotoxicity against human HCT-116 cells assessed as reduction in cell viability incubated for 48 hrs by MTT assay; assay type: functional, cell-based; conditions: HCT-116, 48 h
[6] = test system: HepG2; test: Cytotoxicity against human HepG2 cells assessed as reduction in cell viability incubated for 48 hrs by MTT assay; assay type: functional, cell-based; conditions: HepG2, 48 h
[7] = test system: SW480; test: Cytotoxicity against human SW480 cells assessed as reduction in cell viability incubated for 48 hrs by MTT assay; assay type: functional, cell-based; conditions: SW480, 48 h

Row | SMILES | pIC50 [1] | pIC50 [2] | pIC50 [3] | pIC50 [4] | pIC50 [5] | pIC50 [6] | pIC50 [7]
1 | C=C1C(=O)O[C@H]2[C@H]1CC/C(CO)=C\CC[C@@]1(C)O[C@@H]21 | 5.16 | 5.13 | 4.97 | 5.22 | 5.12 | 4.92 | 5.23
2 | C=C1C(=O)O[C@H]2[C@H]1CC/C(COC(=O)c1ccc3cnccc3c1)=C/CC[C@@]1(C)O[C@@H]21 | 5.61 | 5.61 | 5.59 | 5.64 | 5.57 | 5.02 | 5.88
3 | C=C1C(=O)O[C@H]2[C@H]1CC/C(COC(=O)c1ccc3nc(O)ccc3c1)=C/CC[C@@]1(C)O[C@@H]21 | 5.76 | 5.29 | 5.12 | 5.29 | 5.65 | 4.98 | 6.14
4 | C=C1C(=O)O[C@H]2[C@H]1CC/C(COC(=O)CCc1n[nH]c(=O)c3ccccc13)=C/CC[C@@]1(C)O[C@@H]21 | 5.39 | 4.87 | 5.22 | 5.10 | 5.35 | 5.14 | 5.84
5 | C/C1=C\CC[C@@]2(C)O[C@H]2[C@H]2OC(=O)C(CN3CCCN(C(=O)c4ccc5ccccc5n4)CC3)[C@@H]2CC1 (stereo partly drawn) | 4.41 | 4.56 | 4.95 | 4.14 | 4.30 | 4.22 | 5.19
6 | C=C1C(=O)O[C@H]2[C@H]1CC/C(COC(=O)Cc1n[nH]c(=O)c3ccccc13)=C/CC[C@@]1(C)O[C@@H]21 | 5.59 | 5.24 | 5.07 | 5.26 | 5.54 | 5.07 | 5.64
7 | C=C1C(=O)O[C@H]2[C@H]1CC/C(C(=O)CN1CCN(C(=O)c3ccc4ccccc4n3)CC1)=C/CC[C@@]1(C)O[C@@H]21 | 5.32 | 4.83 | 4.89 | 5.08 | 5.28 | 5.11 | 5.48
8 | C/C1=C\CC[C@@]2(C)O[C@H]2[C@H]2OC(=O)/C(=C\c3ccc4ncccc4c3)[C@@H]2CC1 | 5.18 | 4.77 | 5.56 | 4.90 | 5.18 | 4.63 | 5.57
9 | C=C1C(=O)O[C@H]2[C@H]1CC/C(COC(=O)c1n[nH]c(=O)c3ccccc13)=C/CC[C@@]1(C)O[C@@H]21 | 5.20 | 5.34 | 5.11 | 5.20 | 5.16 | 5.02 | 5.61
10 | C=C1C(=O)O[C@H]2[C@H]1CC[C@]1(C)O[C@@H]1CC[C@@]1(C)O[C@@H]21 | 4.94 | 4.54 | 4.89 | 4.82 | 4.87 | 4.63 | 5.37
11 | C=C1C(=O)O[C@H]2[C@H]1C[C@H](OC(=O)c1ccc3ncccc3c1)C(C)=C1CC[C@@](C)(O)[C@@H]12 | 5.84 | 5.80 | 5.63 | 5.58 | 5.96 | 5.34 | 6.40
12 | C=C1C(=O)O[C@H]2[C@H]1CC/C(COC(=O)c1ccc3cccnc3c1)=C/CC[C@@]1(C)O[C@@H]21 | 5.55 | 5.53 | 5.89 | 5.76 | 5.50 | 5.01 | 6.48
13 | C=C1C(=O)O[C@H]2[C@H]1CC/C(COC(=O)c1ccc3ccccc3n1)=C/CC[C@@]1(C)O[C@@H]21 | 5.57 | 5.53 | 5.65 | 5.67 | 5.53 | 5.05 | 5.92
14 | C=C1C(=O)O[C@H]2[C@H]1CC/C(COC(=O)c1ccc3ncc(Br)cc3c1)=C/CC[C@@]1(C)O[C@@H]21 | 6.10 | 6.04 | 5.60 | 5.72 | 5.92 | 5.35 | 6.42
15 | CO[C@@]12[C@H](COC(N)=O)C3=C(C(=O)C(C)=C(N)C3=O)N1C[C@@H]1N[C@@H]12 [MITOMYCIN] | 6.36 | 5.56 | 5.07 | 5.54 | 6.26 | 5.64 | 6.10
16 | C=C1C(=O)O[C@H]2[C@H]1CC/C(C(=O)Oc1ccc3nccc(Cl)c3c1)=C/CC[C@@]1(C)O[C@@H]21 | 5.91 | 5.56 | 5.66 | 5.65 | 5.89 | 5.39 | 6.23
17 | C/C1=C\CC[C@@]2(C)O[C@H]2[C@H]2OC(=O)/C(=C\c3ccc4ncncc4c3)[C@@H]2CC1 | < 4.00 | 4.40 | 4.14 | < 4.00 | 4.06 | < 4.00 | 4.29
18 | C=C1C(=O)O[C@H]2[C@H]1CC/C(COC(=O)Cc1ccc3ncccc3c1)=C/CC[C@@]1(C)O[C@@H]21 | 5.85 | 5.56 | 5.18 | 5.38 | 5.75 | 5.23 | 5.74
19 | C=C1C(=O)O[C@H]2[C@H]1CC/C(COC(=O)CCn1cnc3ccccc3c1=O)=C/CC[C@@]1(C)O[C@@H]21 | 5.28 | 5.06 | 5.11 | 5.08 | 5.24 | 4.75 | 5.49
20 | C=C1C(=O)O[C@H]2[C@H]1CC/C(C(=O)CN1CCN(C(=O)c3ccc4ccccc4n3)CC1C)=C/CC[C@@]1(C)O[C@@H]21 (stereo partly drawn) | 5.20 | 4.85 | 4.66 | 5.06 | 5.16 | 4.85 | 5.06
21 | C=C1C(=O)O[C@H]2[C@H]1CC/C(COC(=O)c1cccc3cccnc13)=C/CC[C@@]1(C)O[C@@H]21 | 5.58 | 5.58 | 5.45 | 5.66 | 5.39 | 5.06 | 6.31
22 | C=C1C(=O)O[C@H]2[C@H]1CC/C(COC(=O)c1ccc3nc(Cl)ccc3c1)=C/CC[C@@]1(C)O[C@@H]21 | 5.85 | 5.76 | 5.61 | 5.57 | 5.75 | 5.32 | 6.34
23 | C=C1C(=O)O[C@H]2[C@H]1CC/C(COC(=O)c1ccc3ncncc3c1)=C/CC[C@@]1(C)O[C@@H]21 | 5.24 | 4.76 | 4.86 | 5.05 | 5.21 | 4.93 | 5.72
24 | C=C1C(=O)O[C@H]2[C@H]1CC/C(COC(=O)c1ccc3nccnc3c1)=C/CC[C@@]1(C)O[C@@H]21 | 5.60 | 5.66 | 5.50 | 5.53 | 5.55 | 5.16 | 5.90
